Reference: patent US10266550B2, “Bacterial topoisomerase I inhibitors with antibacterial activity” (The Florida International University Board of Trustees, priority 2016, dated 2019)
In brackets after ≈: the same amount, converted by molar mass. Like-named read-outs stand apart in the source and are kept apart here.

Experiments:
[1] = biological target: E. coli topoisomerase I (Escherichia coli (strain K12), UniProt P06612); experiment: biochemical; assay type: biochemical
Method: Recombinant E. coli topoisomerase I and gyrase expressed in E. coli were purified as described previously.
E. coli Topoisomerase I Relaxation Activity Inhibition Assay
The relaxation activity of E. coli topoisomerase I was assayed in a buffer containing 10 mM Tris-HCl, pH 8.0, 50 mM NaCl, 0.1 mg/mL gelatin, and 0.5 mM MgCl2. Half microliter from the appropriate stock solutions of compounds dissolved in the solvent (DMSO) or the solvent alone (control) was mixed with 9.5 μL of the reaction buffer containing 10 ng of enzyme before the addition of 10 μL of reaction buffer containing 200 ng of supercoiled pBAD/Thio plasmid DNA purified by cesium chloride gradient as substrate. Following incubation at 37° C. for 30 min, the reactions were terminated by the addition of 4 μL of a stop buffer (50% glycerol, 50 mM EDTA, and 0.5% (v/v) bromophenol blue), and analyzed by agarose gel electrophoresis. The gels were stained in ethidium bromide and photographed under UV light.

[2] = system: Vero cells; experiment: Vero cell cytotoxicity assay; assay type: cell-based; conditions: for IC50: cytotoxicity
Method: MICs of compounds against M. tuberculosis were determined by a modified microplate Alamar blue assay (MABA). Vero cell cytotoxicity assay was performed as previously described.

[3] = system: E. coli Imp4213 (BAS3023); experiment: MIC, microdilution in Mueller-Hinton Broth; assay type: cell-based; conditions: for MIC: Escherichia coli, read-out: Whole cell based antibacterial activity (MIC) E. coli Imp4213 (BAS3023), membrane permeable imp mutant; for Whole cell based antibacterial activity (MIC) E. coli Imp4213 (BAS3023): membrane permeable imp mutant
[4] = biological target: Human topoisomerase I (Homo sapiens (Human), UniProt P11387); experiment: Human topoisomerase I relaxation inhibition assay; assay type: biochemical; conditions: read-out: Topoisomerase inhibitory activity (IC50) Human topo I (type IB)
Chain of Human topoisomerase I (P11387 whole entry): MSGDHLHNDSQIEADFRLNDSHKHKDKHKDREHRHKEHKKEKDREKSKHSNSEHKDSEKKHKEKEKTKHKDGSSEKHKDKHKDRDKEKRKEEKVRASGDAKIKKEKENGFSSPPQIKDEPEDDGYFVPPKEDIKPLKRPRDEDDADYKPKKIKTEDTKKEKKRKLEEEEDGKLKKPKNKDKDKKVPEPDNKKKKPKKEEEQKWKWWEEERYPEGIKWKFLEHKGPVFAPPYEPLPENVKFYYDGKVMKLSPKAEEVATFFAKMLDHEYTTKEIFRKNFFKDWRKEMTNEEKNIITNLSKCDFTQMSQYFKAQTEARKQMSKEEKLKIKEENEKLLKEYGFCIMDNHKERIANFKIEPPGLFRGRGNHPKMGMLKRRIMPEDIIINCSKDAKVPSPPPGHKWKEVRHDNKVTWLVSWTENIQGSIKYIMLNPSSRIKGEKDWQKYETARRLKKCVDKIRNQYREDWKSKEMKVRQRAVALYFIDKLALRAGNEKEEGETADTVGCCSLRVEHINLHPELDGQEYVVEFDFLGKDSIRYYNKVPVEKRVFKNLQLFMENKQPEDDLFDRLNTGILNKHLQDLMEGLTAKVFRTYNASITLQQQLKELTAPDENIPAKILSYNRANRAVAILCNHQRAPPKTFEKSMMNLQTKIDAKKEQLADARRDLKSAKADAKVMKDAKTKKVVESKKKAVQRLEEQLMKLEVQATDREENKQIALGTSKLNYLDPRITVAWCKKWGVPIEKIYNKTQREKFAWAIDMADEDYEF
Method: Human topoisomerase I relaxation assays were carried out with 0.5 U of enzyme in reaction buffer supplied by the manufacturer. The enzyme was mixed with the indicated concentration of compound dissolved before 200 ng of supercoiled pBAD/Thio plasmid DNA was added in the same buffer, for a final volume of 20 μL. Following incubation at 37° C. for 30 minutes, the reactions were terminated with a buffer containing 5% SDS, 0.25% bromophenol blue, and 25% glycerol, and analyzed by agarose gel electrophoresis.
Human topoisomerase I and topoisomerase IIα were purchased from TopoGen (Buena vista, CO, USA).

[5] = system: E. coli (MG1655) WT; experiment: MIC, microdilution in Mueller-Hinton Broth; conditions: wild type, read-out: Whole cell based antibacterial activity (MIC) E. coli (MG1655) WT
[6] = system: B. subtilis (ATCC 6633) WT; experiment: MIC, microdilution in Mueller-Hinton Broth; conditions: read-out: Whole cell based antibacterial activity (MIC) B. subtilis (ATCC 6633) WT
[7] = system: M. tuberculosis (H37Rv); experiment: MIC, microplate Alamar blue assay (MABA); assay type: cell-based; conditions: MABA, read-out: Whole cell based antibacterial activity (MIC) M. tuberculosis (H37Rv)
[8] = Topoisomerase inhibitory activity (IC50) E. coli topo I (type IA), relaxation of supercoiled plasmid DNA
[9] = experimental, converted from IC50
[10] = Table 3, E. coli topoisomerase I, single values set for ranges and bounds, read-out: IC50 (μM) used for CoMFA
[11] = relaxation of supercoiled plasmid DNA, read-out: Topoisomerase inhibitory activity (IC50) E. coli topo I (type IA)
[12] = Bacillus subtilis, ATCC6633, wild type

Chain of E. coli topoisomerase I (P06612 whole entry, looked up): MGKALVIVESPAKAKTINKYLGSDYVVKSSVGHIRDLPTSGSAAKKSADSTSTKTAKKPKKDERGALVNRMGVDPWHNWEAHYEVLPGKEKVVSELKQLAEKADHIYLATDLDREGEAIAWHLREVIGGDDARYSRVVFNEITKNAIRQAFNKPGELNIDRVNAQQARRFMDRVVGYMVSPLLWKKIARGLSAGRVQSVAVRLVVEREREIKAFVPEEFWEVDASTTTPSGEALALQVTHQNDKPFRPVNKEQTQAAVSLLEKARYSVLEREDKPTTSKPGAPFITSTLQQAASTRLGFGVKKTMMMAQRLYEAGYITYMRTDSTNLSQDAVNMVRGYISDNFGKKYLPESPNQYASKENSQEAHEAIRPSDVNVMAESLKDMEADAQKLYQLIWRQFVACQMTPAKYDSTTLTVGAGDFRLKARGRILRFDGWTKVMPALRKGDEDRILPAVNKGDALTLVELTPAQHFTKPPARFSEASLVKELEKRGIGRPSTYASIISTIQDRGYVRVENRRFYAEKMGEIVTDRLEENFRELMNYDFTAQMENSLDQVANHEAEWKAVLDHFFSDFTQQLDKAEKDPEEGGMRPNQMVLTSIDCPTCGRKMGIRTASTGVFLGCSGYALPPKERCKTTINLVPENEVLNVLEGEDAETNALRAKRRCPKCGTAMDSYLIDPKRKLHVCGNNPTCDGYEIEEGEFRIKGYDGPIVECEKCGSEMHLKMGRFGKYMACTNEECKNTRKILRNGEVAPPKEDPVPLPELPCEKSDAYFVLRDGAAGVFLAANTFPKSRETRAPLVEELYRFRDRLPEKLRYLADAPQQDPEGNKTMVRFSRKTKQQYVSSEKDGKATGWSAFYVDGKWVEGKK

`Nc1ccc2c(c1)Oc1c(N3CCNCC3)c(F)cc3c(=O)c(C(=O)O)cn-2c13` [Compound 11b, 9-Amino-5-fluoro-3-oxo-6-(piperazin-1-yl)-3H-pyrido[3,2,1-kl]phenoxazine-2-carboxylic acid] was tested, and the IC50 [1, 8] was 0.24 to 0.97 µM, the “PIC50 (pIC50 = −log IC50)” value [1, 9] was 6.62 and the IC50 ([2]; Chlorocebus sabaeus, Vero) was greater than 126 µM. The MIC [3] was 0.39 µM (≈ 0.155 µg/mL), the IC50 [4] was 7.8 µM and the MIC ([5]; Escherichia coli, MG1655) was greater than 200 µM.

With `Nc1ccc2c(c1)Oc1c(NC34CC5CC(CC(C5)C3)C4)c(F)cc3c(=O)c(C(=O)O)cn-2c13` [Compound 11f, 6-(((3s, 5s, 7s)-Adamantan-1-yl)amino)-9-amino-5-fluoro-3-oxo-3H-pyrido[3,2,1-kl]phenoxazine-2-carboxylic acid] the IC50 [1, 10] was 5.85 µM, the “PIC50 (pIC50 = −log IC50)” value [1, 9] was 5.23 and the IC50 [1, 11] was 3.9 to 7.8 µM. The MIC ([6]; wild type) was 12.5 µM (≈ 5.77 µg/mL), the “SI (Selectivity index = cytotoxic IC50 against Vero cells/MIC against M. tuberculosis)” value [2] was 0.8 and the IC50 [2] was 30.7 µM. The “Whole cell based antibacterial activity (MIC) E. coli Imp4213 (BAS3023)” value (“Whole cell based antibacterial activity” for short) [3] was 3.12 µM, the MIC [7] was 38.4 µM (≈ 17.7 µg/mL) and the MIC [5] was greater than 200 µM.

`O=C(O)c1cn2c3c(c(N4CCNCC4)c(F)cc3c1=O)Oc1cc([N+](=O)[O-])ccc1-2` [Compound 10b, 5-Fluoro-9-nitro-3-oxo-6-(piperazin-1-yl)-3H-pyrido[3,2,1-kl]phenoxazine-2-carboxylic acid] was tested, and the “PIC50 (pIC50 = −log IC50)” value [1, 9] was 5.41, the MIC [6, 12] was greater than 200 µM and the MIC ([5]; Escherichia coli, MG1655) was greater than 200 µM.

In the case of `Nc1ccc2c(c1)Oc1c(N3CC[C@@H](N)C3)c(F)cc3c(=O)c(C(=O)O)cn-2c13` [Compound 17b, (R)-9-amino-6-(3-aminopyrrolidin-1-yl)-5-fluoro-3-oxo-3H-pyrido[3,2,1-kl]phenoxazine-2-carboxylic acid], the “PIC50 (pIC50 = −log IC50)” value [1, 9] is reported as 6.14, the IC50 ([2]; Chlorocebus sabaeus, Vero) is reported as greater than 63.1 µM and the MIC [3] is reported as 6.25 µM (≈ 2.48 µg/mL). For the same compound, the MIC [7] was greater than 63.1 µM, the MIC ([7]; Mycobacterium tuberculosis, H37RV) was greater than 63.1 µM and the MIC ([5]; Escherichia coli, MG1655) was greater than 200 µM.

With `CCOC(=O)c1cn2c3c(c(F)c(F)cc3c1=O)Oc1cc(C#N)ccc1-2` [Compound 6b, Ethyl 9-cyano-5,6-difluoro-3-oxo-3H-pyrido[3,2,1-kl]phenoxazine-2-carboxylate] the “PIC50 (pIC50 = −log IC50)” value [1, 9] was 4.51 and the MIC ([5]; Escherichia coli, MG1655) was greater than 200 µM.

`O=C(O)c1cn2c3c(c(F)c(F)cc3c1=O)Oc1cc(C(F)(F)F)ccc1-2` [Compound 7c, 5,6-Difluoro-3-oxo-9-(trifluoromethyl)-3H-pyrido[3,2,1-kl]phenoxazine-2-carboxylic acid] was tested, and the “activity against topoisomerase I when tested at 125 μM” value [1] was “inactive”, the IC50 ([1]; IC50 (μM) used for CoMFA, Table 3, E. coli topoisomerase I, single values set for ranges and bounds) was 250 µM and the IC50 ([1]; PIC50 (pIC50 = −log IC50), experimental, converted from IC50) was 245 µM. The IC50 [1, 11] was greater than 125 µM and the MIC ([5]; Escherichia coli, MG1655) was greater than 200 µM.

In the case of `CCCCCCNc1c(F)cc2c(=O)c(C(=O)O)cn3c2c1Oc1cc(N)ccc1-3` [Compound 11k, 9-Amino-5-fluoro-6-(hexylamino)-3-oxo-3H-pyrido[3,2,1-kl]phenoxazine-2-carboxylic acid], the IC50 [1, 8] is reported as 3.9 to 15.6 µM, the “PIC50 (pIC50 = −log IC50)” value [1, 9] is reported as 4.81 and the MIC [6, 12] is reported as greater than 200 µM. The MIC ([5]; Escherichia coli, MG1655) was greater than 200 µM.

`Nc1ccc2c(c1)Oc1c(NC3CCCCC3)c(F)cc3c(=O)c(C(=O)O)cn-2c13` [Compound 11i, 9-Amino-6-(cyclohexylamino)-5-fluoro-3-oxo-3H-pyrido[3,2,1-kl]phenoxazine-2-carboxylic acid] was tested, and the IC50 [1, 8] was 3.9 to 15.6 µM, the “PIC50 (pIC50 = −log IC50)” value [1, 9] was 5.41 and the MIC [3] was 25 µM (≈ 10.2 µg/mL). The MIC ([5]; Escherichia coli, MG1655) was greater than 200 µM.

In the case of `Nc1ccc2c(c1)Oc1c(NC3CCCC3)c(F)cc3c(=O)c(C(=O)O)cn-2c13` [Compound 11j, 9-Amino-6-(cyclopentylamino)-5-fluoro-3-oxo-3H-pyrido[3,2,1-kl]phenoxazine-2-carboxylic acid], the IC50 [1, 8] is reported as 3.9 to 15.6 µM, the “PIC50 (pIC50 = −log IC50)” value [1, 9] is reported as 5.41 and the MIC [3] is reported as 25 µM (≈ 9.88 µg/mL). It also gave an MIC ([5]; Escherichia coli, MG1655) greater than 200 µM.

`CCOC(=O)c1cn2c3c(c(N4CCN(C)CC4)c(F)cc3c1=O)Oc1cc([N+](=O)[O-])ccc1-2` [Compound 9, Ethyl-5-fluoro-6-(4-methylpiperazin-1-yl)-9-nitro-3-oxo-3H-pyrido[3,2,1-kl]phenoxazine-2-carboxylate] was tested, and the “PIC50 (pIC50 = −log IC50)” value [1, 9] was 5.71, the MIC [3] was 25 µM (≈ 11.7 µg/mL) and the MIC ([5]; Escherichia coli, MG1655) was greater than 200 µM.

For `O=C(O)c1cn2c3c(c(F)c(F)cc3c1=O)Oc1cc([N+](=O)[O-])ccc1-2` [Compound 7a, 5,6-Difluoro-9-nitro-3-oxo-3H-pyrido[3,2,1-kl]phenoxazine-2-carboxylic acid], the “PIC50 (pIC50 = −log IC50)” value [1, 9] was 4.81, the MIC [3] was 0.78 µM (≈ 0.281 µg/mL) and the MIC ([5]; Escherichia coli, MG1655) was 200 µM (≈ 72 µg/mL).

For `CC(=O)Nc1ccc2c(c1)Oc1c(F)c(F)cc3c(=O)c(C(=O)O)cn-2c13` [Compound 12, 9-acetamido-5,6-difluoro-3-oxo-3H-pyrido[3,2,1-kl]phenoxazine-2-carboxylic acid], the “PIC50 (pIC50 = −log IC50)” value [1, 9] was 5.11, the MIC [6, 12] was greater than 200 µM and the MIC ([5]; Escherichia coli, MG1655) was greater than 200 µM.

For `CCOC(=O)c1cn2c3c(c(F)c(F)cc3c1=O)Oc1cc(C(F)(F)F)ccc1-2` [Compound 6c, Ethyl 5,6-difluoro-3-oxo-9-(trifluoromethyl)-3H-pyrido[3,2, I-kl]phenoxazine-2-carboxylate], the “activity against topoisomerase I when tested at 125 μM” value [1] was “inactive”, the IC50 [1, 10] was 250 µM and the “PIC50 (pIC50 = −log IC50)” value [1, 9] was 3.60. The IC50 [1, 11] was greater than 125 µM, the MIC ([6]; wild type) was greater than 200 µM and the “Whole cell based antibacterial activity” value [3] was greater than 200 µM. It also gave an MIC [5] greater than 200 µM.

`N#Cc1ccc2c(c1)Oc1c(F)c(F)cc3c(=O)c(C(=O)O)cn-2c13` [Compound 7b, 9-Cyano-5,6-d fluoro-3-oxo-3H-pyrido[3,2,1-d]phenoxazine-2-carboxylic acid] was tested, and the IC50 [1, 10] was 31.2 µM, the “PIC50 (pIC50 = −log IC50)” value [1, 9] was 4.51 and the IC50 [1, 11] was 31.2 µM. For the same compound, the MIC ([6]; wild type) was greater than 200 µM, the “Whole cell based antibacterial activity” value [3] was 200 µM and the MIC [5] was greater than 200 µM.

For `CC1CCN(c2c(F)cc3c(=O)c(C(=O)O)cn4c3c2Oc2cc(N)ccc2-4)CC1` [Compound 11c, 9-Amino-5-fluoro-6-(4-methylpiperidin-1-yl)-3-oxo-3H-pyrido[3,2,1-kl]phenoxazine-2-carboxylic acid], the IC50 [1, 8] was 3.9 to 15.6 µM, the “PIC50 (pIC50 = −log IC50)” value [1, 9] was 5.41 and the MIC [3] was 3.12 µM (≈ 1.28 µg/mL). The MIC ([5]; Escherichia coli, MG1655) was greater than 200 µM.

`CC(C)(C)OC(=O)N[C@H]1CCN(c2c(F)cc3c(=O)c(C(=O)O)cn4c3c2Oc2cc(N)ccc2-4)C1` [Compound 15a, (S)-9-amino-6-(3-((tert-butoxycarbonyl)amino)pyrrolidin-1-yl)-S-fluoro-3-oxo-3H-pyrido[3,2,1-kl]phenoxazine-2-carboxylic acid] was tested, and the IC50 [1, 10] was 3.9 µM, the “PIC50 (pIC50 = −log IC50)” value [1, 9] was 5.41 and the IC50 [1, 11] was 3.9 µM. For the same compound, the MIC ([6]; wild type) was 12.5 µM (≈ 6.21 µg/mL), the “Whole cell based antibacterial activity” value [3] was 12.5 µM and the MIC [5] was greater than 200 µM.

In the case of `CC(=O)c1ccc2c(c1)Oc1c(F)c(F)cc3c(=O)c(C(=O)O)cn-2c13` [Compound 7d, 9-A cetyl-5,6-difluoro-3-oxo-3H-pyrido[3,2,1-kl]phenoxazine-2-carboxylic acid], the “PIC50 (pIC50 = −log IC50)” value [1, 9] is reported as 4.81, the MIC [6, 12] is reported as greater than 200 µM and the MIC ([5]; Escherichia coli, MG1655) is reported as greater than 200 µM.

`Nc1ccc2c(c1)Oc1c(N3CC[C@H](N)C3)c(F)cc3c(=O)c(C(=O)O)cn-2c13` [Compound 17a, (S)-9-amino-6-(3-aminopyrrolidin-1-yl)-S-fluoro-3-oxo-3H-pyrido[3,2,1-kl]phenoxazine-2-carboxylic acid] was tested, and the IC50 [1, 10] was 0.73 µM, the “PIC50 (pIC50 = −log IC50)” value [1, 9] was 6.14 and the IC50 [1, 11] was 0.48 to 0.97 µM. The MIC ([6]; wild type) was 6.25 µM (≈ 2.48 µg/mL), the IC50 [2] was greater than 63.1 µM and the “Whole cell based antibacterial activity” value [3] was 1.56 µM. The MIC [7] was greater than 63.1 µM and the MIC [5] was greater than 200 µM.

In the case of `CCOC(=O)c1cn2c3c(c(F)c(F)cc3c1=O)Oc1cc([N+](=O)[O-])ccc1-2` [Compound 6a, Ethyl 5,6-difluoro-9-nitro-3-oxo-3H-pyrido[3,2,1-kl]phenoxazine-2-carboxylate], the “PIC50 (pIC50 = −log IC50)” value [1, 9] is reported as 4.81, the MIC [3] is reported as 50 µM (≈ 19.4 µg/mL) and the MIC ([5]; Escherichia coli, MG1655) is reported as greater than 200 µM.
